From patent publication US20220117938A1, “COMBINATON THERAPY WITH A DON PRODRUG AND AN IMMUNE CHECKPOINT INHIBITOR” (DRACEN PHARMACEUTICALS, INC., priority 2019, published 2022)

System: MC38 tumors
Experiment: Anti-tumor efficacy of Compound 1 and Compound 3 by IV and SC routes in the MC38 model (Example 9)
Format: in vivo, mice
Protocol: Female C57BL/6 mice were inoculated subcutaneously in the right flank with MC38 cells for tumor development. Six days after tumor inoculation, mice with tumor sizes ranging from 52-97 mm^3 (average tumor size 71 mm^3) were selected and assigned into 10 groups using stratified randomization with 8 mice per group based upon their tumor volumes. The treatments were started from the day of randomization (defined as D0), Group 1 was treated with Vehicle control, SC qd×5 days on (Mon-Fri)×4 cycles; Group 2 was treated with Compound 1, 1.4 mpk SC, qd×5 days on (Mon-Fri)×4 cycles; Group 3 was treated with Compound 1, 7 mpk IV, biw (Mon, Thu)×4 cycles; Group 4 was treated with Compound 1, 14 mpk IV, biw (Mon, Thu)×4 cycles; Group 5 was treated with Compound 1, 14 mpk IV, qw (Mon)×4 cycles; Group 6 was treated with Compound 1, 21 mpk IV, qw (Mon)×4 cycles; Group 7 was treated with Compound 3, 1 mpk SC, qd 5 days on (Mon-Fri)×4 cycles; Group 8 was treated with Compound 3, 3 mpk SC, qd 5 days on (Mon-Fri)×4 cycles; Group 9 was treated with Compound 3, 9 mpk SC, qd 5 days on (Mon-Fri)×4 cycles; and Group 10 was treated with Compound 3, 7 mpk IV, tiw (Mon, Wed, Fri)×4 cycles. The tumor sizes were measured three times per week during the treatment. Survival was monitored with tumor volume exceeding 2000 mm^3 as endpoint. The entire study was terminated on D44 after start of the treatment. All treatments were well-tolerated without any adverse effects or significant body weight loss.

[1] = Group 7, 1 mpk SC qd Mon-Fri x4 cycles
[2] = Group 7, 1 mpk SC qd Mon-Fri x4 cycles, day 11
[3] = Group 8, 3 mpk SC qd Mon-Fri x4 cycles
[4] = Group 8, 3 mpk SC qd Mon-Fri x4 cycles, day 11
[5] = Group 9, 9 mpk SC qd Mon-Fri x4 cycles
[6] = Group 9, 9 mpk SC qd Mon-Fri x4 cycles, day 11
[7] = Group 10, 7 mpk IV tiw x4 cycles

Compound: CC(=O)N[C@@H](Cc1c[nH]c2ccccc12)C(=O)N[C@@H](CCC(=O)C=[N+]=[N-])C(=O)O [Compound 3, (S)-2-((S)-2-acetamido-3-(1H-indol-3-yl)propanamido)-6-diazo-5-oxohexanoic acid]
- ILS [1]: 106.7%
- MST [1]: 31 days
- RTV at day 11 [1]: 2.22 ± 0.22
- Tumor Size at day 11 [1]: 152 ± 10 mm^3
- Tumor volume (Group 7, 1 mpk SC qd Mon-Fri x4 cycles, day 0): 70 ± 4 mm^3
- Tumor volume (Group 7, 1 mpk SC qd Mon-Fri x4 cycles, day 2): 91 ± 9 mm^3
- Tumor volume (Group 7, 1 mpk SC qd Mon-Fri x4 cycles, day 4): 83 ± 9 mm^3
- Tumor volume (Group 7, 1 mpk SC qd Mon-Fri x4 cycles, day 7): 201 ± 26 mm^3
- Tumor volume (Group 7, 1 mpk SC qd Mon-Fri x4 cycles, day 9): 181 ± 18 mm^3
- T/C [2]: 13.66%
- TGI [2]: 92.34%
- Tumor volume [2]: 152 ± 10 mm^3
- Tumor volume (Group 7, 1 mpk SC qd Mon-Fri x4 cycles, day 14): 293 ± 60 mm^3
- Tumor volume (Group 7, 1 mpk SC qd Mon-Fri x4 cycles, day 16): 298 ± 60 mm^3
- Tumor volume (Group 7, 1 mpk SC qd Mon-Fri x4 cycles, day 18): 400 ± 79 mm^3
- Tumor volume (Group 7, 1 mpk SC qd Mon-Fri x4 cycles, day 21): 644 ± 160 mm^3
- Tumor volume (Group 7, 1 mpk SC qd Mon-Fri x4 cycles, day 23): 975 ± 238 mm^3
- ILS [3]: 170.0%
- MST [3]: 40.5 days
- RTV at day 11 [3]: 0.85 ± 0.11
- Tumor Size at day 11 [3]: 39 ± 5 mm^3
- Tumor volume (Group 8, 3 mpk SC qd Mon-Fri x4 cycles, day 0): 70 ± 5 mm^3
- Tumor volume (Group 8, 3 mpk SC qd Mon-Fri x4 cycles, day 2): 88 ± 7 mm^3
- Tumor volume (Group 8, 3 mpk SC qd Mon-Fri x4 cycles, day 4): 59 ± 9 mm^3
- Tumor volume (Group 8, 3 mpk SC qd Mon-Fri x4 cycles, day 7): 57 ± 14 mm^3
- Tumor volume (Group 8, 3 mpk SC qd Mon-Fri x4 cycles, day 9): 45 ± 6 mm^3
- T/C [4]: 5.22%
- TGI [4]: 101.21%
- Tumor volume [4]: 39 ± 5 mm^3
- Tumor volume (Group 8, 3 mpk SC qd Mon-Fri x4 cycles, day 14): 41 ± 7 mm^3
- Tumor volume (Group 8, 3 mpk SC qd Mon-Fri x4 cycles, day 16): 47 ± 7 mm^3
- Tumor volume (Group 8, 3 mpk SC qd Mon-Fri x4 cycles, day 18): 22 ± 4 mm^3
- Tumor volume (Group 8, 3 mpk SC qd Mon-Fri x4 cycles, day 21): 29 ± 3 mm^3
- Tumor volume (Group 8, 3 mpk SC qd Mon-Fri x4 cycles, day 23): 26 ± 2 mm^3
- Tumor volume (Group 8, 3 mpk SC qd Mon-Fri x4 cycles, day 25): 23 ± 4 mm^3
- Tumor volume (Group 8, 3 mpk SC qd Mon-Fri x4 cycles, day 28): 22 ± 4 mm^3
- Tumor volume (Group 8, 3 mpk SC qd Mon-Fri x4 cycles, day 30): 52 ± 8 mm^3
- Tumor volume (Group 8, 3 mpk SC qd Mon-Fri x4 cycles, day 32): 213 ± 47 mm^3
- Tumor volume (Group 8, 3 mpk SC qd Mon-Fri x4 cycles, day 35): 351 ± 61 mm^3
- Tumor volume (Group 8, 3 mpk SC qd Mon-Fri x4 cycles, day 37): 692 ± 129 mm^3
- ILS [5]: 180.0%
- MST [5]: 42 days
- RTV at day 11 [5]: 0.56 ± 0.07
- Tumor Size at day 11 [5]: 39 ± 5 mm^3
- Tumor volume (Group 9, 9 mpk SC qd Mon-Fri x4 cycles, day 0): 71 ± 5 mm^3
- Tumor volume (Group 9, 9 mpk SC qd Mon-Fri x4 cycles, day 2): 88 ± 7 mm^3
- Tumor volume (Group 9, 9 mpk SC qd Mon-Fri x4 cycles, day 4): 59 ± 9 mm^3
- Tumor volume (Group 9, 9 mpk SC qd Mon-Fri x4 cycles, day 7): 57 ± 14 mm^3
- Tumor volume (Group 9, 9 mpk SC qd Mon-Fri x4 cycles, day 9): 45 ± 6 mm^3
- T/C [6]: 3.45%
- TGI [6]: 102.98%
- Tumor volume [6]: 39 ± 5 mm^3
- Tumor volume (Group 9, 9 mpk SC qd Mon-Fri x4 cycles, day 14): 41 ± 7 mm^3
- Tumor volume (Group 9, 9 mpk SC qd Mon-Fri x4 cycles, day 16): 47 ± 7 mm^3
- Tumor volume (Group 9, 9 mpk SC qd Mon-Fri x4 cycles, day 18): 22 ± 4 mm^3
- Tumor volume (Group 9, 9 mpk SC qd Mon-Fri x4 cycles, day 21): 29 ± 3 mm^3
- Tumor volume (Group 9, 9 mpk SC qd Mon-Fri x4 cycles, day 23): 26 ± 2 mm^3
- Tumor volume (Group 9, 9 mpk SC qd Mon-Fri x4 cycles, day 25): 23 ± 4 mm^3
- Tumor volume (Group 9, 9 mpk SC qd Mon-Fri x4 cycles, day 28): 22 ± 4 mm^3
- Tumor volume (Group 9, 9 mpk SC qd Mon-Fri x4 cycles, day 30): 52 ± 8 mm^3
- Tumor volume (Group 9, 9 mpk SC qd Mon-Fri x4 cycles, day 32): 213 ± 47 mm^3
- Tumor volume (Group 9, 9 mpk SC qd Mon-Fri x4 cycles, day 35): 351 ± 61 mm^3
- Tumor volume (Group 9, 9 mpk SC qd Mon-Fri x4 cycles, day 37): 692 ± 129 mm^3
- Tumor volume (Group 9, 9 mpk SC qd Mon-Fri x4 cycles, day 39): 1235 ± 196 mm^3
- Tumor volume (Group 9, 9 mpk SC qd Mon-Fri x4 cycles, day 42): 2174 ± 275 mm^3
- ILS [7]: 146.7%
- MST [7]: 37 days
- Tumor volume (Group 10, 7 mpk IV tiw x4 cycles, day 0): 71 ± 5 mm^3
- Tumor volume (Group 10, 7 mpk IV tiw x4 cycles, day 2): 86 ± 5 mm^3
- Tumor volume (Group 10, 7 mpk IV tiw x4 cycles, day 4): 76 ± 7 mm^3
- Tumor volume (Group 10, 7 mpk IV tiw x4 cycles, day 7): 76 ± 8 mm^3
- Tumor volume (Group 10, 7 mpk IV tiw x4 cycles, day 9): 61 ± 7 mm^3
- Tumor volume (Group 10, 7 mpk IV tiw x4 cycles, day 11): 68 ± 13 mm^3
- Tumor volume (Group 10, 7 mpk IV tiw x4 cycles, day 14): 85 ± 16 mm^3
- Tumor volume (Group 10, 7 mpk IV tiw x4 cycles, day 16): 115 ± 21 mm^3
- Tumor volume (Group 10, 7 mpk IV tiw x4 cycles, day 18): 107 ± 21 mm^3
- Tumor volume (Group 10, 7 mpk IV tiw x4 cycles, day 21): 131 ± 21 mm^3
- Tumor volume (Group 10, 7 mpk IV tiw x4 cycles, day 23): 233 ± 46 mm^3
- Tumor volume (Group 10, 7 mpk IV tiw x4 cycles, day 25): 273 ± 59 mm^3
- Tumor volume (Group 10, 7 mpk IV tiw x4 cycles, day 28): 356 ± 103 mm^3
- Tumor volume (Group 10, 7 mpk IV tiw x4 cycles, day 30): 575 ± 121 mm^3
- Tumor volume (Group 10, 7 mpk IV tiw x4 cycles, day 32): 849 ± 134 mm^3
- Tumor volume (Group 10, 7 mpk IV tiw x4 cycles, day 35): 1688 ± 223 mm^3
